“And” between values parts separate entries of the source, which are not always exact repeats. Equal entries are not always repeated.
System: BDF1 mice, Adenocarcinoma 755 s.c., tumor weight T/C
Assay: NCI In Vivo Anticancer Drug Screen. Data for tumor model Adenocarcinoma 755 (subcutaneous) in B6D2F1 (BDF1) mice
Details: endpoint: mean tumor weight, higher = larger tumour
Outline: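 In vivo antitumor screen on a transplantable tumor line. Result equals the measure in compound-treated animals divided by the same measure in vehicle controls.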

[1] = dose: 31.0 mg/kg/injection, schedule: Q01DX011 (ip), vehicle: methylcellulose (MC)
[2] = dose: 50.0 mg/kg/injection, schedule: Q01DX011 (ip), vehicle: methylcellulose (MC)
[3] = dose: 62.0 mg/kg/injection, schedule: Q01DX011 (ip), vehicle: methylcellulose (MC)
[4] = dose: 100.0 mg/kg/injection, schedule: Q01DX011 (ip), vehicle: methylcellulose (MC)
[5] = dose: 7.0 mg/kg/injection, schedule: Q01DX011 (ip), vehicle: methylcellulose (MC)
[6] = dose: 14.0 mg/kg/injection, schedule: Q01DX011 (ip), vehicle: methylcellulose (MC)
[7] = dose: 50.0 mg/kg/injection, schedule: Q01DX011 (ip), vehicle: carboxymethylcellulose (CMC)

CO[C@@H]1[C@@H](OC2OC(C)C(OC3CC(C)(O)C(OC(=O)CC(C)C)C(C)O3)C(N(C)C)C2O)[C@@H](CC=O)C[C@@H](C)C(=O)/C=C/C2O[C@H]2C[C@@H](C)OC(=O)C[C@H]1OC(C)=O (some centres not stated)
T/C (dose: 200.0 mg/kg/injection, schedule: Q01DX011 (ip), vehicle: other): 66 % of control | T/C (dose: 250.0 mg/kg/injection, schedule: Q01DX011 (ip), vehicle: other): 60 % of control and 63 % of control | T/C (dose: 300.0 mg/kg/injection, schedule: Q01DX011 (ip), vehicle: other): 24 % of control and 33 % of control | T/C (dose: 350.0 mg/kg/injection, schedule: Q01DX011 (ip), vehicle: other): 45 % of control

CN(C)/N=N/c1nc[nH]c1C(N)=O
T/C (dose: 5.0 mg/kg/injection, schedule: Q01DX011 (ip), vehicle: carboxymethylcellulose (CMC)): 79 % of control | T/C (dose: 10.0 mg/kg/injection, schedule: Q01DX011 (ip), vehicle: carboxymethylcellulose (CMC)): 59 % of control | T/C (dose: 12.0 mg/kg/injection, schedule: Q01DX011 (ip), vehicle: methylcellulose (MC)): 50 % of control | T/C (dose: 16.0 mg/kg/injection, schedule: Q01DX011 (ip), vehicle: methylcellulose (MC)): 54 % of control | T/C (dose: 20.0 mg/kg/injection, schedule: Q01DX011 (ip), vehicle: carboxymethylcellulose (CMC)): 53 % of control and 57 % of control | T/C (dose: 20.0 mg/kg/injection, schedule: Q01DX011 (ip), vehicle: saline): 64 % of control | T/C (dose: 25.0 mg/kg/injection, schedule: Q01DX011 (ip), vehicle: methylcellulose (MC)): 37 % of control | T/C (dose: 31.0 mg/kg/injection, schedule: Q01DX011 (ip), vehicle: carboxymethylcellulose (CMC)): 52 % of control | T/C [1]: 62 % of control | T/C (dose: 40.0 mg/kg/injection, schedule: Q01DX011 (ip), vehicle: saline): 63 % of control | T/C [2]: 30 % of control | T/C (dose: 62.0 mg/kg/injection, schedule: Q01DX011 (ip), vehicle: carboxymethylcellulose (CMC)): 47 % of control | T/C [3]: 94 % of control | T/C (dose: 62.5 mg/kg/injection, schedule: Q01DX011 (ip), vehicle: carboxymethylcellulose (CMC)): 55 % of control | T/C (dose: 80.0 mg/kg/injection, schedule: Q01DX011 (ip), vehicle: saline): 30 % of control | T/C [4]: 22 % of control | T/C (dose: 160.0 mg/kg/injection, schedule: Q01DX011 (ip), vehicle: saline): 17 % of control | T/C (dose: 600.0 mg/kg/injection, schedule: Q01DX011 (ip), vehicle: saline): 3 % of control

CC(C)(CBr)C(=O)N1CCN(C(=O)C(C)(C)CBr)CC1
T/C [5]: 80 % of control | T/C [6]: 56 % of control

C(=N\OCCc1ccccc1)/c1cccnc1
T/C (dose: 88.0 mg/kg/injection, schedule: Q01DX011 (ip), vehicle: methylcellulose (MC)): 70 % of control

C/C=C1\CN(C)[C@H]2Cc3c([nH]c4ccccc34)[C@@H](c3cc4[nH]c5c(c4cc3OC)CCN3C[C@H]4C[C@H](CC)[C@H]3[C@@]5(C(=O)OC)C4)C[C@H]1C2C(=O)OC (some centres not stated)
T/C (dose: 30.0 mg/kg/injection, schedule: Q01DX011 (ip), vehicle: water): 58 % of control | T/C (dose: 35.0 mg/kg/injection, schedule: Q01DX006 (ip), vehicle: water): 57 % of control | T/C (dose: 45.0 mg/kg/injection, schedule: Q01DX011 (ip), vehicle: water): 41 % of control | T/C (dose: 50.0 mg/kg/injection, schedule: Q01DX006 (ip), vehicle: water): 61 % of control and 69 % of control | T/C (dose: 70.0 mg/kg/injection, schedule: Q01DX006 (ip), vehicle: water): 51 % of control | T/C (dose: 80.0 mg/kg/injection, schedule: Q01DX006 (ip), vehicle: water): 54 % of control

C[C@@H]1C[C@H]2CC[C@H](O2)[C@H](C)C(=O)O[C@@H](C)C[C@@H]2CC[C@@H](O2)[C@@H](C)C(=O)O[C@H](C)C[C@H]2CC[C@H](O2)[C@H](C)C(=O)O[C@@H](C)C[C@@H]2CC[C@@H](O2)[C@@H](C)C(=O)O1
T/C (dose: 2.5 mg/kg/injection, schedule: Q01DX011 (ip), vehicle: olive oil, sesame oil, peanut oil): 116 % of control | T/C (dose: 5.0 mg/kg/injection, schedule: Q01DX011 (ip), vehicle: olive oil, sesame oil, peanut oil): 85 % of control | T/C (dose: 10.0 mg/kg/injection, schedule: Q01DX011 (ip), vehicle: olive oil, sesame oil, peanut oil): 96 % of control | T/C (dose: 10.0 mg/kg/injection, schedule: Q01DX011 (sc), vehicle: olive oil, sesame oil, peanut oil): 118 % of control | T/C (dose: 18.0 mg/kg/injection, schedule: Q01DX011 (ip), vehicle: carboxymethylcellulose (CMC)): 116 % of control | T/C (dose: 19.0 mg/kg/injection, schedule: Q01DX011 (ip), vehicle: methylcellulose (MC)): 89 % of control | T/C (dose: 19.0 mg/kg/injection, schedule: Q01DX011 (sc), vehicle: methylcellulose (MC)): 246 % of control | T/C (dose: 20.0 mg/kg/injection, schedule: Q01DX011 (ip), vehicle: olive oil, sesame oil, peanut oil): 48 % of control | T/C (dose: 20.0 mg/kg/injection, schedule: Q01DX011 (sc), vehicle: olive oil, sesame oil, peanut oil): 73 % of control | T/C (dose: 30.0 mg/kg/injection, schedule: Q01DX011 (sc), vehicle: olive oil, sesame oil, peanut oil): 87 % of control | T/C (dose: 36.0 mg/kg/injection, schedule: Q01DX011 (ip), vehicle: carboxymethylcellulose (CMC)): 98 % of control | T/C (dose: 37.5 mg/kg/injection, schedule: Q01DX011 (sc), vehicle: methylcellulose (MC)): 159 % of control | T/C (dose: 40.0 mg/kg/injection, schedule: Q01DX011 (ip), vehicle: carboxymethylcellulose (CMC)): 87 % of control | T/C [7]: 92 % of control | T/C (dose: 60.0 mg/kg/injection, schedule: Q01DX011 (ip), vehicle: carboxymethylcellulose (CMC)): 89 % of control | T/C (dose: 60.0 mg/kg/injection, schedule: Q01DX011 (sc), vehicle: olive oil, sesame oil, peanut oil): 57 % of control | T/C (dose: 75.0 mg/kg/injection, schedule: Q01DX011 (ip), vehicle: methylcellulose (MC)): 91 % of control | T/C (dose: 150.0 mg/kg/injection, schedule: Q01DX011 (sc), vehicle: methylcellulose (MC)): 211 % of control

Nc1ncnc2c1cnn2C1CCCCO1 (configuration not stated)
T/C (dose: 1.75 mg/kg/injection, schedule: Q01DX011 (ip), vehicle: methylcellulose (MC)): 74 % of control | T/C (dose: 3.5 mg/kg/injection, schedule: Q01DX011 (ip), vehicle: methylcellulose (MC)): 50 % of control | T/C [5]: 21 % of control | T/C [6]: 1 % of control

OC1CC([CH2][Hg][Cl])OC([CH2][Hg][Cl])C1 (configuration not stated)
T/C (dose: 6.0 mg/kg/injection, schedule: Q01DX011 (ip), vehicle: carboxymethylcellulose (CMC)): 95 % of control | T/C (dose: 12.0 mg/kg/injection, schedule: Q01DX011 (ip), vehicle: carboxymethylcellulose (CMC)): 109 % of control | T/C (dose: 25.0 mg/kg/injection, schedule: Q01DX011 (ip), vehicle: carboxymethylcellulose (CMC)): 28 % of control and 36 % of control | T/C [7]: 92 % of control

Nc1nc(Cl)cc(Nc2ccccc2Br)n1
T/C (dose: 15.0 mg/kg/injection, schedule: Q01DX011 (ip), vehicle: methylcellulose (MC)): 66 % of control | T/C [1]: 87 % of control | T/C [3]: 88 % of control | T/C (dose: 125.0 mg/kg/injection, schedule: Q01DX011 (ip), vehicle: methylcellulose (MC)): 79 % of control | T/C (dose: 250.0 mg/kg/injection, schedule: Q01DX011 (ip), vehicle: methylcellulose (MC)): 121 % of control

CC(C)CSc1ncnc2nc[nH]c12
T/C (dose: 6.0 mg/kg/injection, schedule: Q01DX011 (ip), vehicle: other): 45 % of control | T/C (dose: 11.0 mg/kg/injection, schedule: Q01DX011 (ip), vehicle: other): 19 % of control | T/C (dose: 22.0 mg/kg/injection, schedule: Q01DX011 (ip), vehicle: other): 5 % of control | T/C (dose: 31.0 mg/kg/injection, schedule: Q01DX011 (ip), vehicle: other): 1 % of control | T/C (dose: 45.0 mg/kg/injection, schedule: Q01DX011 (ip), vehicle: other): 7 % of control

CC12CCC(=O)C=C1CCC1C2C(O)CC2(C)C(O)CCC12 (configuration not stated)
T/C (dose: 25.0 mg/kg/injection, schedule: Q01DX011 (sc), vehicle: steriod suspending solution): 73 % of control | T/C (dose: 100.0 mg/kg/injection, schedule: Q01DX011 (sc), vehicle: steriod suspending solution): 97 % of control | T/C (dose: 300.0 mg/kg/injection, schedule: Q01DX011 (sc), vehicle: steriod suspending solution): 84 % of control

CCCCn1cnc2c(SCCc3ccccc3)nc(N)nc21
T/C [2]: 37 % of control | T/C [4]: 42 % of control | T/C (dose: 200.0 mg/kg/injection, schedule: Q01DX011 (ip), vehicle: methylcellulose (MC)): 26 % of control

CC(=O)[C@H]1CC[C@H]2[C@@H]3CCC4=CC(=O)C=C[C@]4(C)[C@H]3C(=O)C[C@]12C
T/C (dose: 66.0 mg/kg/injection, schedule: Q01DX011 (sc), vehicle: steriod suspending solution): 62 % of control and 74 % of control | T/C (dose: 132.0 mg/kg/injection, schedule: Q01DX011 (sc), vehicle: steriod suspending solution): 37 % of control and 58 % of control | T/C (dose: 264.0 mg/kg/injection, schedule: Q01DX011 (sc), vehicle: steriod suspending solution): 25 % of control and 44 % of control | T/C (dose: 528.0 mg/kg/injection, schedule: Q01DX011 (sc), vehicle: steriod suspending solution): 28 % of control and 35 % of control

— PubChem BioAssay AID180 (DTP/NCI, 2004)
